Results: patent US11939352B2, “Potent aromatase inhibitors through fungal transformation of anti-cancer drug testolactone: an approach towards treatment of breast cancer” (priority 2021, dated 2024)

Target: T1, human placental microsomal aromatase (Homo sapiens, UniProt P11511)
T1 construct: was determined in a pool of human fresh placental microsomes in vitro; from tissue; host or cells: human placenta (pooled fresh microsomes)
T1 sequence (P11511 1-503): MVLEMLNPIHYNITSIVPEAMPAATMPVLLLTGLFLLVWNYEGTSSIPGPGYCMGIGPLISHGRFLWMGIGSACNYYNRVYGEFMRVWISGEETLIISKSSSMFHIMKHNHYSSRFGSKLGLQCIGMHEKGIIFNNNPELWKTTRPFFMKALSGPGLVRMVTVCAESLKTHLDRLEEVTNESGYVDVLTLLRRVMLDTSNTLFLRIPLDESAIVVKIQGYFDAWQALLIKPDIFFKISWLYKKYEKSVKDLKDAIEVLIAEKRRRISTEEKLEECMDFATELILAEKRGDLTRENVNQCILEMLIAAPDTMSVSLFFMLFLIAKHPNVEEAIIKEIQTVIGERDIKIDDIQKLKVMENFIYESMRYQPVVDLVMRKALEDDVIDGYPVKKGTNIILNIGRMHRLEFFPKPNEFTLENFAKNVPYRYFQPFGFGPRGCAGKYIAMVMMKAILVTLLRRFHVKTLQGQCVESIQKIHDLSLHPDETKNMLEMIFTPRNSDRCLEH
Assay: Human placental aromatase inhibition assay
Type: biochemical

Row | Compound | IC50 [µM]
1 | C[C@]12C=CC(=O)C=C1CC[C@@H]1[C@@H]2CC[C@]2(C)OC(=O)CC[C@@H]12 [Compound 1, 3-oxo-13,17-secoandrosta-1,4-dieno-17,13α-lactone, reference compound] | 0.716 ± 0.031
2 | C[C@]12C=CC(=O)C[C@H]1C[C@H](O)[C@@H]1[C@@H]2CC[C@]2(C)OC(=O)CC[C@@H]12 [Compound 2, 7β-hydroxy-3-oxo-13,17-seco-5β-androsta-1-eno-17,13α-lactone] | 0.00863 ± 0.0004
3 | C[C@]12CC[C@@H](O)C[C@H]1CC[C@@H]1[C@@H]2[C@@H](O)C[C@]2(C)OC(=O)CC[C@@H]12 [Compound 3, 3α,11β-dihydroxy-13,17-seco-5β-androsta-17,13α-lactone] | 0.00923 ± 0.0013
4 | C[C@]12CC[C@H]3[C@@H](CC[C@]45O[C@H]4[C@@H](O)C=C[C@]35C)[C@@H]1CCC(=O)O2 [Compound 4, 4β,5β-epoxy-3β-hydroxy-13,17-secoandrosta-1-eno-17,13α-lactone] | 10.4 ± 0.5
5 | C[C@]12CC[C@H]3[C@@H](CC[C@]45O[C@H]4[C@H](O)C=C[C@]35C)[C@@H]1CCC(=O)O2 [Compound 5, 4β,5β-epoxy-3α-hydroxy-13,17-secoandrosta-1-eno-17,13α-lactone] | 0.82 ± 0.059
